The source of these data is ChEMBL document CHEMBL3526111, “In vitro hepatotoxicity and cytochrome P450 induction and inhibition characteristics of carnosic acid, a dietary supplement with antiadipogenic properties” (Drug Metab Dispos, 2012).

For data set [1], the target named is Cytochrome P450 3A4 (Homo sapiens, UniProt P08684). As to the kind of experiment: Inhibition of CYP3A4 activity in human hepatocytes after 30 mins by liquid chromatography/tandem mass spectroscopy. It counts as ADME, cell-based, Hepatocyte.
Data set [2] deals with Hepatocyte. As to the kind of experiment: Cytotoxicity against human hepatocytes assessed as loss of nuclei after 24 hrs at 50 to 100 uM. It counts as cell-based.
The test system of data set [3] is Hepatocyte. The data set can be described thus: Cytotoxicity against human hepatocytes assessed as cytoplasm granulation with vacuoles after 24 hrs at 50 to 100 uM. The format is cell-based.
Data set [4] in a line: Cytotoxicity against human hepatocytes assessed as cell viability after 24 hrs at 100 uM by ATP detection based assay. Also on record: species or system Hepatocyte. To be noted: read-out: Activity.
The test system of data set [5] is Hepatocyte. The data set can be described thus: Cytotoxicity against human hepatocytes assessed as reduction in cell viability after 4 hrs by ATP detection based assay.
Data set [6] has as its system Hepatocyte. The data set can be described thus: Cytotoxicity against human hepatocytes assessed as reduction in cell viability after 24 hrs by ATP detection based assay.
Data set [7] concerns Hepatocyte. The data set can be described thus: Cytotoxicity against human hepatocytes assessed as reduction in cell viability after 24 hrs by LDH release assay. The format is cell-based. In general terms: Release of lactate dehydrogenase indicates damage to the cell membrane.
The test system of data set [8] is Hepatocyte. The data set can be described thus: Induction of apoptosis in human hepatocytes assessed as caspase 3/7 activation by caspase-Glo 3/7 assay. The format is cell-based.
Data set [9] deals with CYP3A4. The data set can be described thus: Induction of CYP3A4 mRNA expression in human hepatocytes at 10 uM after 48 hrs relative to untreated control. It counts as ADME, cell-based, Hepatocyte. Particulars: read-out: FC; call rule not given here.
The test system of data set [10] is CYP2B6. The data set can be described thus: Induction of CYP2B6 mRNA expression in human hepatocytes at 10 uM after 48 hrs relative to untreated control. To be noted: read-out: FC. It counts as ADME, cell-based, Hepatocyte.
Data set [11] deals with SULT2A1. As to the kind of experiment: Induction of SULT2A1 mRNA expression in human hepatocytes at 10 uM after 48 hrs relative to untreated control. To be noted: read-out: FC. The format is cell-based, Hepatocyte.
Data set [12] addresses T1, CYP1A2 (Homo sapiens, UniProt P05177).
T1 sequence (P05177 whole entry): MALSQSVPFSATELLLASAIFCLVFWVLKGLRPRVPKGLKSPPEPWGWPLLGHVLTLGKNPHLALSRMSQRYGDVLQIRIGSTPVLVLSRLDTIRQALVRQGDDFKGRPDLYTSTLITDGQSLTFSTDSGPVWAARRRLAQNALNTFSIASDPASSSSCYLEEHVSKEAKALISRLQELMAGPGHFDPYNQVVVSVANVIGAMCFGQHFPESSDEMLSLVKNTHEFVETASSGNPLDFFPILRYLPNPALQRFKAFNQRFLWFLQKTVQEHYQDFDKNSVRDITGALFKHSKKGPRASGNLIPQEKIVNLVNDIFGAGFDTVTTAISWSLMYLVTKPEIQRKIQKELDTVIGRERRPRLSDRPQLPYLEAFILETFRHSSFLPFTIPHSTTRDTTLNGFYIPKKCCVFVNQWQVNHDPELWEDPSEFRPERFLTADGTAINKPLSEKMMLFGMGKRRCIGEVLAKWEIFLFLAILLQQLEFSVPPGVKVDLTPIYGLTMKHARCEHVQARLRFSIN
The data set can be described thus: Time dependent inhibition of CYP1A2 activity in human hepatocytes after 30 mins by liquid chromatography/tandem mass spectroscopy. The format is ADME, cell-based, Hepatocyte.

The target in data set [13] is T2, CYP2B6 (Homo sapiens, UniProt P20813).
T2 sequence (P20813 whole entry): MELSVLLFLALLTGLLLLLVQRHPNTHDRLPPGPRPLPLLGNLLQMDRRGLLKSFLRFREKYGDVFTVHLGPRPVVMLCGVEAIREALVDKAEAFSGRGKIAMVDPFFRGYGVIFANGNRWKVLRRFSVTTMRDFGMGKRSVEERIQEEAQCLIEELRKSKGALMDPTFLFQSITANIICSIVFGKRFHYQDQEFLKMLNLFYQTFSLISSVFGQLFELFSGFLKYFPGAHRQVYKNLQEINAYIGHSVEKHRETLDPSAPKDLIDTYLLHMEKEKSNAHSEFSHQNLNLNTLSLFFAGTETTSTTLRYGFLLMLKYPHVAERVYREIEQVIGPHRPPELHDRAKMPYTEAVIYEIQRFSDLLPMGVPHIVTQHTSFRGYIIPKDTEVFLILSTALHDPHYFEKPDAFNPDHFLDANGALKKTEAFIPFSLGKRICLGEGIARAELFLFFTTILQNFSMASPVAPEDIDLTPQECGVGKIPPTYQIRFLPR
As to the kind of experiment: Time dependent inhibition of CYP2B6 activity in human hepatocytes after 30 mins by liquid chromatography/tandem mass spectroscopy. The format is ADME, cell-based, Hepatocyte.

Data set [14] concerns the target T3, CYP2C8 (Homo sapiens, UniProt P10632).
T3 sequence (P10632 whole entry): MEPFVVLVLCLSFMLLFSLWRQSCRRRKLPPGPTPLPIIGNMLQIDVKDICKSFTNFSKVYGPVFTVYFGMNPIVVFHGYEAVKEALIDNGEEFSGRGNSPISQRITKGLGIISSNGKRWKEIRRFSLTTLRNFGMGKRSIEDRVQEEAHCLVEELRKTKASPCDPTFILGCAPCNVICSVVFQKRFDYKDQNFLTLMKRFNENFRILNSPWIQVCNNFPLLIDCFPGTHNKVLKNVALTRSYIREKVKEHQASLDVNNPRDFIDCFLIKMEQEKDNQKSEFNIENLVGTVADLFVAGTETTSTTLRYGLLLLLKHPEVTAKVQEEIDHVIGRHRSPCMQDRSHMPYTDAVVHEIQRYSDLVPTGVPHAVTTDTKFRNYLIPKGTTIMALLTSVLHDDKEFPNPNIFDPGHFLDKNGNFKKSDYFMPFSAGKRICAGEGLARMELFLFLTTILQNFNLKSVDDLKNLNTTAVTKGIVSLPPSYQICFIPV
As to the kind of experiment: Time dependent inhibition of CYP2C8 activity in human hepatocytes after 30 mins by liquid chromatography/tandem mass spectroscopy. The format is ADME, cell-based, Hepatocyte.

Data set [15] addresses CYP2C9 (Homo sapiens, UniProt P11712). As to the kind of experiment: Time dependent inhibition of CYP2C9 activity in human hepatocytes after 30 mins by liquid chromatography/tandem mass spectroscopy. It counts as ADME, cell-based, Hepatocyte.
In data set [16] the target is CYP2C19 (Homo sapiens, UniProt P33261). The data set can be described thus: Time dependent inhibition of CYP2C19 activity in human hepatocytes after 30 mins by liquid chromatography/tandem mass spectroscopy. It counts as ADME, cell-based, Hepatocyte.
Data set [17] deals with CYP2D6 (Homo sapiens, UniProt P10635). As to the kind of experiment: Time dependent inhibition of CYP2D6 activity in human hepatocytes after 30 mins by liquid chromatography/tandem mass spectroscopy. It counts as ADME, cell-based, Hepatocyte.
The target in data set [18] is CYP2E1 (Homo sapiens, UniProt P05181). The data set can be described thus: Time dependent inhibition of CYP2E1 activity in human hepatocytes after 30 mins by liquid chromatography/tandem mass spectroscopy. It counts as ADME, cell-based, Hepatocyte.
The target in data set [19] is CYP3A4 (Homo sapiens, UniProt P08684). As to the kind of experiment: Time dependent inhibition of CYP3A4 activity in human hepatocytes after 30 mins by liquid chromatography/tandem mass spectroscopy. It counts as ADME, cell-based, Hepatocyte.
Data set [20] addresses Cytochrome P450 2C9 (Homo sapiens, UniProt P11712). As to the kind of experiment: Inhibition of CYP2C9 activity in human hepatocytes after 30 mins by liquid chromatography/tandem mass spectroscopy. It counts as ADME, cell-based, Hepatocyte.
For data set [21], the system named is Hepatocyte. The data set can be described thus: Cytotoxicity against human hepatocytes assessed as reduction in cell viability after 4 hrs by LDH release assay. The format is cell-based.

Where only a bound is given, the exact number is not on record here.

Sequence of CYP2C19 (P33261 whole entry): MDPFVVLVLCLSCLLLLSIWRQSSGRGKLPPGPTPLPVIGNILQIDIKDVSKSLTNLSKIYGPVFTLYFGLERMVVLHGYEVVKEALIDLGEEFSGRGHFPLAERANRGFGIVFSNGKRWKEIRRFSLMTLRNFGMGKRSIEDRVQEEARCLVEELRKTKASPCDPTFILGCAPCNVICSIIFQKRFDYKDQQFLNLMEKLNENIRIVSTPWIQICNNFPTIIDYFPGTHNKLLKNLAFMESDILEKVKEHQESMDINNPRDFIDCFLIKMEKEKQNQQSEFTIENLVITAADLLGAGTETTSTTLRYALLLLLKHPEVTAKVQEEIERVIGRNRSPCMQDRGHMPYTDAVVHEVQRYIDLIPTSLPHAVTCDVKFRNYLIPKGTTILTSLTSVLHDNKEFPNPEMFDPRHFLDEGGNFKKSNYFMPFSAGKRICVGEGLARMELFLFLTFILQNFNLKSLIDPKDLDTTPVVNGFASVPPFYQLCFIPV
Sequence of CYP2C9 (P11712 whole entry): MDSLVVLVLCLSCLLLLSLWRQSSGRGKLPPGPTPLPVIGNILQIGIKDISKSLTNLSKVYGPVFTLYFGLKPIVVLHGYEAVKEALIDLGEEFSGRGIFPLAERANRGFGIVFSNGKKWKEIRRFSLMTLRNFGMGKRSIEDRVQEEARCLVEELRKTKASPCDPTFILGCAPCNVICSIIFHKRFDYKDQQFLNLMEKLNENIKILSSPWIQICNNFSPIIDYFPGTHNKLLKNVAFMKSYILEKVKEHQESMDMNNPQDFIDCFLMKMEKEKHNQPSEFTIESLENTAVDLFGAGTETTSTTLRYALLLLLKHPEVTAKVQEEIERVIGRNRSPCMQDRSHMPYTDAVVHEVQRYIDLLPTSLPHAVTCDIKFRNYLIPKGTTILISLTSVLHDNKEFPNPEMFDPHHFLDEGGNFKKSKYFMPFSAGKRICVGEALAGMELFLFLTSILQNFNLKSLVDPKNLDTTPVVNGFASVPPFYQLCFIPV
Sequence of Cytochrome P450 2C9 (P11712 whole entry): as above
Sequence of CYP2E1 (P05181 whole entry): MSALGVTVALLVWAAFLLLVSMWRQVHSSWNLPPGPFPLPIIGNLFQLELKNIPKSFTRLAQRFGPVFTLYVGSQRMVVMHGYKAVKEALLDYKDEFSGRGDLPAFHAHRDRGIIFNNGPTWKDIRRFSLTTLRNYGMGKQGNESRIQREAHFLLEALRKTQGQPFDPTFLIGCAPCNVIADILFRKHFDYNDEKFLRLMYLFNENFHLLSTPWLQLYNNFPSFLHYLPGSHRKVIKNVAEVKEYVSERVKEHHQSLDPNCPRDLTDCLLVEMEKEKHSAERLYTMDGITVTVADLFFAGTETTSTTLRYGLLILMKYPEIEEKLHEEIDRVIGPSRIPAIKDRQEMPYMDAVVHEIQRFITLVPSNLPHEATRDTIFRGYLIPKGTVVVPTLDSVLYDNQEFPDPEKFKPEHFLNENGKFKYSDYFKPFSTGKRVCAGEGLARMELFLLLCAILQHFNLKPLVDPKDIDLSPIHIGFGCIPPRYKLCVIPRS
Sequence of CYP2D6 (P10635 whole entry): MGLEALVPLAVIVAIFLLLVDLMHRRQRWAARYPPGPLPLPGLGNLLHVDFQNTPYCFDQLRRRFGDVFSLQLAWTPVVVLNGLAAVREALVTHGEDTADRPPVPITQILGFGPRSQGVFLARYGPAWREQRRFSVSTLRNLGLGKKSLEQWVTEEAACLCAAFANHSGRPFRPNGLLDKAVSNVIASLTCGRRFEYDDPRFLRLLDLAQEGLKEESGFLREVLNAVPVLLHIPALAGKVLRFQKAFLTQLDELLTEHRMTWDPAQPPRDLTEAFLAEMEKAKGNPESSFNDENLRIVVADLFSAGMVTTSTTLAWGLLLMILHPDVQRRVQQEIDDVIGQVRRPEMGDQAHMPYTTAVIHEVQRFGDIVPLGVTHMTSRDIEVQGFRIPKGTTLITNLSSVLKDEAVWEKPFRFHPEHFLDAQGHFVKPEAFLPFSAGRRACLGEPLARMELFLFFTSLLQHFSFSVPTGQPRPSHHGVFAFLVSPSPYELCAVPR
Sequence of Cytochrome P450 3A4 (P08684 whole entry): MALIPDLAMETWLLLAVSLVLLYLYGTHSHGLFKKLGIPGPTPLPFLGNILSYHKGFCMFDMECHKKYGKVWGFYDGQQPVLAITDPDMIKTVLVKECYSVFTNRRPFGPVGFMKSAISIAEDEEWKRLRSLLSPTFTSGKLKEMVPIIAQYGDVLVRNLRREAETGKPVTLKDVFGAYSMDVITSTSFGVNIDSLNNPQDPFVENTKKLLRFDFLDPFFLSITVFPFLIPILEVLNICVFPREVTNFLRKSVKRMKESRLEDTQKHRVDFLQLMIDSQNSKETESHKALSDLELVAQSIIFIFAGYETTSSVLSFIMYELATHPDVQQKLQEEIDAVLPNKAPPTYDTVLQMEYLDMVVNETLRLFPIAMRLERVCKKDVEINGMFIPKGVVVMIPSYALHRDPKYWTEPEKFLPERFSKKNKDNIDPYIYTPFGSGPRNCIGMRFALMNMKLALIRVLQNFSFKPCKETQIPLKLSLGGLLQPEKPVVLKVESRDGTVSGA
Sequence of CYP3A4 (Homo sapiens, UniProt P08684) (P08684 whole entry): as above

Usually Ki stands for the dissociation constant of the complex between target and ligand, obtained from inhibition or displacement. Usually EC50 stands for the concentration that produces a half-maximal response. As usually defined, the inhibition is the percentage by which the read-out fell short of the control. Higher therefore signals a strong effect. In the case of `CC(C)c1cc2c(c(O)c1O)[C@@]1(C(=O)O)CCCC(C)(C)[C@@H]1CC2` [CARNOSIC ACID], the results for the Ki in data set [1] and in data set [20] were 4.3 µM and 9.2 µM, respectively. In addition, the Activity result in [2] is reported as “Toxic”; in [3] it was “Toxic”; in [8], “Non-toxic”. Further, the viability at 24 h, 100 µM in data set [4] is less than 10%. Moreover, the EC50 was 95.7 µM in data set [5], 94.8 µM in data set [6] and “Not Active” in data set [7]. Further, the results for the fold induction at 48 h, 10 µM in data set [9], in [10] and in [11] were 13.9, 4.5 and 2.4, respectively. For the same compound, the inhibition at 0.5 h in data set [12], in data set [13], in data set [14], in [15], in [16] and in data set [17] was less than 11% throughout. Besides, the inhibition at 0.5 h in data set [18] and in data set [19] was less than 11% throughout.
For the compound `CC/C(=C(\c1ccccc1)c1ccc(OCCN(C)C)cc1)c1ccccc1` [TAMOXIFEN], the EC50 in data set [5] was 71.4 µM; in data set [6] it was 34.4 µM; in data set [7], “Not Active”; in data set [21] it was 67.6 µM. Moreover, the Activity entry in data set [8] is listed as “Toxic”.
